Reference: patent US20100170777A1, “AGENT FOR DEGRADING A NUCLEIC ACID AND METHOD OF DEGRADING A NUCLEIC ACID” (Morinaga Milk Industry Co., Ltd., priority 2006, published 2010)

How the values were obtained:
[1] = tested on: E. coli chromosomal DNA; assay: Influence of EMA plus visible light on isolated E. coli nucleic acid in vitro (agarose gel electrophoresis), chromosomal DNA band; type: biochemical; conditions: visible light 500 W halogen bulb 20 min
Description: (§1) b 1 ml living bacterial suspension of 1.0×10^6 CFU/ml of E. coli/DH5α strain was subjected to centrifugation under a cool condition. After removal of the supernatant, the resulting pellet was added with 0.5 ml of 10 mM Tris-HCl buffer solution (pH 8.0) and further added with 10 μl of 1250U/ml protease K solution and 200 μl of 10% SDS solution, followed by overnight bacteriolysis at 50° C.
(§2) Subsequently, each of the treated solution was divided into two equal volumes and dispensed into two 2 ml micro tubes, respectively. Each of them was added with 0.5 ml of saturated phenol solution, then gently mixed for 15 minutes, and then added with 0.5 ml of chloroform, followed by gently mixing for 5 minutes. After that, the mixture was centrifuged at 6,000×g at 4° C. for 10 minutes. An aqueous phase, an upper layer, was transferred into an another 2 ml microtube and then added with 70 μl of 3M sodium acetate (pH 5.2) and 1.21 ml of 99.5% cold ethanol, followed by gentle mixing. […] The concentration of the purified nucleic acid solution was determined based on the absorbance at UV260 nm (50 μg/ml of the nucleic acid was defined as OD=1, cell length=1 cm:OD260).
(§3) The nucleic acid solution thus prepared was adjusted to 175 ng/μl with sterile water and 4 μl aliquot of the nucleic acid solution was then added to each of microtubes. […] The resulting image was recorded on the Polaroid film 667. […]

[2] = tested on: rRNA (16SrRNA and 23SrRNA); assay: Influence of EMA plus visible light on isolated E. coli nucleic acid in vitro (agarose gel electrophoresis), rRNA bands; type: biochemical; conditions: visible light 500 W halogen bulb 20 min
Description: as §1, §2, §3

[3] = tested on: chromosomal DNA in the nucleic acid existing inside of the living bacteria (E. coli); assay: Influence of EMA plus visible light on nucleic acid inside living E. coli (in vivo; agarose gel electrophoresis), chromosomal DNA band; type: cell-based; conditions: living E. coli/DH5α suspension, visible light 500 W halogen bulb 20 min
Description: (§4) EMA was dissolved in sterile water to prepare 1000 μg/ml EMA solution. The solution was filtrated for sterilization through a 0.2 μm filter (Minisart-plus; manufactured by Sartorius AG). The EMA solution was added so that the final concentration of EMA become 0 (no addition), 0.01, 0.1, 1, 10, and 100 μg/ml with respect to 1 ml of 1.0×10^6CFU/ml living bacterial suspension of E. coli/DH5α strain, followed by leaving standing at 4° C. for 1 hour.
(§5) Subsequently, at a distance of 20 cm from the above living bacterial suspension on ice, the sample was irradiated for 20 minutes with visible light from a 500 W halogen bulb (FLOOD PRF 100V 500 W; Iwasaki Electric Co., Ltd., Tokyo). […]
(§6) Each of the treated solution was divided into two equal volumes and dispensed into two 2 ml micro tubes, respectively. […] The concentration of the purified nucleic acid solution was determined based on the absorbance at UV260 nm (50 μg/ml of the nucleic acid was defined as OD=1, cell length=1 cm:OD260). The purity of the purified nucliec acid was calculated by dividing OD260 with OD280.
(§7) Each of the nucleic acid solutions was prepared at 175 ng/μl and 4 μl of each was then electrophoresed on 0.7% agarose gel. λ-EcoT14 I digest (manufactured by Takara Bio Inc.) was used as a molecular weight marker. […] The resulting image was recorded on the Polaroid film 667. […]

[4] = tested on: rRNA (16SrRNA and 23SrRNA) of living bacteria (E. coli); assay: Influence of EMA plus visible light on nucleic acid inside living E. coli (in vivo; agarose gel electrophoresis), rRNA bands; type: cell-based; conditions: EMA 10 μg/ml; living E. coli/DH5α suspension; visible light 500 W halogen bulb 20 min
Description: as §4, §5, §6, §7

[5] = tested on: E. coli/DH5α strain; assay: Antibacterial effect of EMA on living bacteria (number of living bacterial cells); type: cell-based; conditions: 1.0×10^6 CFU/ml E. coli/DH5α, visible light 500 W halogen bulb 20 min
Description: Ethidium monoazide (EMA) was dissolved in sterile water to prepare 1000 μg/ml EMA solution. The solution was filtrated through a 0.2 μm sterile filter (Minisart-plus; manufactured by Sartorius AG). The EMA solution was added so that the final concentration of EMA become 0 (no addition), 0.01, 0.1, 1, 10, and 100 μg/ml, respectively with respect to 1 ml of 1.0×10^6CFU/ml living bacterial suspension of E. coli/DH5α strain, followed by left standing at 4° C. for 1 hour under light interception.
Subsequently, at a distant of 20 cm from the above living bacterial suspension on ice, the sample was irradiated for 20 minutes with visible light from a 500 W halogen bulb (FLOOD PRF 100V 500 W; Iwasaki Electric Co., Ltd., Tokyo). The sample was subjected to centrifugation at 15,000×g at 4° C. for 10 minutes and the supernatant was then removed to eliminate a product generated by the reaction of water with the visible light irradiation product of EMA (hydroxyamino ethidium), which could not covalently bind to nucleic acid. The pellet was added with an equal amount of physiological saline solution and then serially diluted, followed by 24 hour incubation at 37° C. using an L-plate agar culture medium to determine the number of living bacterial cells.

[6] = tested on: E. coli chromosomal DNA; assay: Electron microscopy of E. coli chromosomal DNA treated with EMA and visible light in vitro; type: biochemical; conditions: visible light 500 W halogen bulb 20 min
Description: Nucleic acid was extracted in a manner similar to Example 1 as described above. The nucleic acid was then dissolved in 9 ml of sterile water. A nucleic acid solution thus prepared was gently loaded on the top of 32 ml sucrose density gradient (16 ml of 10% sucrose solution and 16 ml of 40% sucrose solution were used) and then subjected to ultracentrifugation at 26,000 rpm at 20° C. for 18 hours with a swing rotor (manufactured by Hitachi Koki Co., Ltd.: RPS-27-2). After the centrifugation, a small hole was opened in the bottom of the sucrose density gradient solution and then fractionated every 1 ml.
After that, for each fraction, 3M sodiumacetate solution (pH 5.2) was added so as to be 10% (vol/vol). Then, 2-fold volume of 99.5% ethanol was added. Subsequently, the fraction was subjected to centrifugation at 15,000×g at 4° C. for 10 minutes to recover the pellet. Then, the pellet was washed with 70% ethanol and then dissolved in 100 μl of sterile water.
Among the samples obtained from the respective fraction solutions, a sample only containing a long chromosomal DNA with 48 kbp in agarose electrophoresis was further diluted with sterile water so as to be a DNA concentration of 175 ng/μl. Then 4 μl of each aqueous EMA solution (0, 0.02, 2, and 20 μg/ml) was added to 4 μl of the DNA solution and then left standing at 4° C. for 1 hour under light interception. […]

CC[n+]1c(-c2ccccc2)c2cc(N=[N+]=[N-])ccc2c2ccc(N)cc21.[Cl-] [EMA, 3-amino-8-azido-5-ethyl-6-phenyl-phenanthridinium chloride]
intensity of the band originated from the chromosomal DNA of approximately 19,329 bps ([1]; EMA 100 ng/ml to 1 μg/ml): gradually decreased | intensity of the band originated from the chromosomal DNA of approximately 19,329 bps ([1]; EMA 10 μg/ml): significantly disappeared | band intensity of rRNA (16SrRNA and 23SrRNA) ([2]; EMA 1 μg/ml): decreased | band intensity of rRNA (16SrRNA and 23SrRNA) ([2]; EMA 10 μg/ml or more): disappeared | intensity of the band originated from the chromosomal DNA of approximately 19,329 bps ([3]; EMA 10 μg/ml): gradually decreased | intensity of the band originated from the chromosomal DNA of approximately 19,329 bps ([3]; EMA 100 μg/ml): significantly disappeared | band intensity of rRNA (16SrRNA and 23SrRNA) [4]: decreased | decrease in number of living bacterial cells in comparison with the original number ([5]; EMA 10 μg/ml): ~10^2 CFU/ml | decrease in number of living bacterial cells in comparison with the original number ([5]; EMA 100 μg/ml): ~10^5 CFU/ml | effect of cleaving the chromosomal DNA (electron microscopy) ([6]; EMA 0 to 0.01 μg/ml): not observed | effect of cleaving the chromosomal DNA (electron microscopy) ([6]; EMA 1 μg/ml or more): caused the cleaving phenomenon of chromosomal DNA
